Test results published in article PMC8842277, “Highly Antiproliferative Latonduine and Indolo[2,3-c]quinoline Derivatives: Complex Formation with Copper(II) Markedly Changes the Kinase Inhibitory Profile” (Journal of Medicinal Chemistry, 2022).

Assays:
Test in all cases: MTT antiproliferative assay
Type in all cases: cell-based
[1] = system: multidrug-resistant Colo320 human colon adenocarcinoma cells; details: for selectivity factor (SF) Colo320: IC50 MRC-5/IC50 Colo320; for IC50: MTT, 72 h
Experimental: (§1) The in vitro antiproliferative activity of the compounds was tested in doxorubicin-sensitive Colo205 and multidrug-resistant Colo320 human colon adenocarcinoma cell lines as well as in normal human embryonal lung fibroblast cells (MRC-5) by MTT assay.
(§2) Human colonic adenocarcinoma cell lines Colo 205 doxorubicin-sensitive (ATCC-CCL-222) and Colo 320/MDR-LRP multidrug resistant over-expressing ABCB1 (MDR1)-LRP (ATCC-CCL-220.1) were purchased from LGC Promochem, Teddington, UK. The cells were cultured in an RPMI 1640 medium supplemented with 10% heat-inactivated fetal bovine serum, 2 mM L-glutamine, 1 mM Na-pyruvate, and 10 mM HEPES. The semi-adherent human colon cancer cells were detached with Trypsin-Versene (EDTA) solution for 5 min at 37 °C. An MRC-5 human embryonal lung fibroblast cell line (ATCC CCL-171) was purchased from LGC Promochem, Teddington, UK. The cells were cultured in Eagle’s minimal essential medium (EMEM, containing 4.5 g L^–1 glucose) supplemented with a non-essential amino acid mixture, a selection of vitamins, and 10% heat-inactivated fetal bovine serum. The HCT-116 colon carcinoma cells and isogenic p53-knock-out subline were a gift of Prof. Bert Vogelstein from The Johns Hopkins Oncology Center. Cells were cultured in McCoy’s 5A medium supplemented with 10% heat-inactivated fetal bovine serum and 4 mM L-glutamine. All cell lines were incubated at 37 °C, in a 5% CO2, 95% air atmosphere.
(§3) MRC-5 non-cancerous human embryonic lung fibroblast and human colonic adeno-carcinoma cell lines (doxorubicin-sensitive Colo 205 and multidrug resistant Colo 320 colonic adenocarcinoma cells) were used to determine the effect of compounds on cell growth. The effects of increasing concentrations of compounds on cell growth were tested in 96-well flat-bottomed microtiter plates. The compounds were dissolved in DMSO and stock solutions of 10 mM were prepared. These were further diluted in the appropriate cell culture medium by twofold serial dilution starting from 100 or 10 μM for the compounds. The adherent human embryonal lung fibroblast cells were cultured in 96-well flat-bottomed microtiter plates using EMEM supplemented with 10% heat-inactivated fetal bovine serum. The density of the cells was adjusted to 1 × 10^4 cells in 100 μL per well, the cells were seeded for 24 h at 37 °C, 5% CO2, then the medium was removed from the plates containing the cells, and the dilutions of compounds previously made in a separate plate were added to the cells in 200 μL. In the case of the colonic adenocarcinoma cells, the twofold serial dilutions of compounds were prepared in 100 μL of RPMI 1640, horizontally. The semi-adherent colonic adenocarcinoma cells were treated with Trypsin-Versene (EDTA) solution. They were adjusted to a density of 1 × 10^4 cells in 100 μL of RPMI 1640 medium and were added to each well, with the exception of the medium control wells. The final volume of the wells containing compounds and cells was 200 μL. The culture plates were incubated at 37 °C for 72 h; at the end of the incubation period, 20 μL of MTT (thiazolyl blue tetrazolium bromide, Sigma) solution (from a stock solution of 5 mg mL^–1) was added to each well. After incubation at 37 °C for 4 h, 100 μL of sodium dodecyl sulfate (SDS) (Sigma) solution (10% in 0.01 M HCI) was added to each well and the plates were further incubated at 37 °C overnight. Cell growth was determined by measuring the optical density (OD) at 540/630 nm with a Multiscan EX ELISA reader (Thermo Labsystems, Cheshire, WA, USA). […] Curves were fitted by GraphPad Prism software[57] using the sigmoidal dose–response model (comparing variable and fixed slopes). The IC50 values were obtained from at least three independent experiments. Tests in adherent HCT-116 colon carcinoma cells and an isogenic p53-knock-out subline thereof were performed in a similar manner, with 1.5 × 10^3 cells seeded in 100 μL of McCoy’s 5A medium (Sigma-Aldrich) per well. […]

[2] = system: normal human embryonal lung fibroblast cells (MRC-5); details: 72 h, read-out: IC50 MRC-5 benign, mean
Experimental: as §1, §2, §3

[3] = system: doxorubicin-sensitive Colo205 human colon adenocarcinoma cells; details: for selectivity factor (SF) Colo205: IC50 MRC-5/IC50 Colo205; for IC50: MTT, 72 h
Experimental: as §1, §2, §3

| SMILES | selectivity factor (SF) Colo320 [1] | IC50 [1] [nM] | IC50 [2] [nM] | selectivity factor (SF) Colo205 [3] | IC50 [3] [nM] |
| --- | --- | --- | --- | --- | --- |
| CC(=NNC1=NCc2ccccc2-c2c1[nH]c1ccc(Br)cc21)c1ccc(CN2CCOCC2)cn1.[Cl][Cu][Cl] [compound 4, CuCl2(HL^4)·0.5H2O] | 3.64 | 109 | 397 | 1.80 | 220 |
| CC(=NNc1nc2ccccc2c2c1[nH]c1ccc(Br)cc12)c1ccc(CN2CCOCC2)cn1.[Cl][Cu][Cl] [compound 8, CuCl2(HL^8)·H2O] | 0.30 | 547 | 165 | 4.38 | 38 |
